The test system of one data set is NisP. The data set is described as follows: Cleavage of nisin mutants by NisP in crude supernatants or purified peptide, masses by MALDI-TOF. Type of data set: biochemical, Lactococcus lactis. The following applies: His-tagged purified NisP, overnight 37°C; for Aberrant cleavage / misprocessing by NisP: culture pH (4.5–5.0) or pH 6.0, MALDI-TOF. As to the method: Alternatively, supernatants containing nisin mutant peptides produced after induction were divided into two fractions; one in which the pH was adjusted to 6.0 and the other one where the pH was the actual fermentation pH. They were incubated overnight at 37°C with or without His-tagged purified NisP at a ratio of 1000:1. After the incubation, the supernatants were precipitated using TCA and resuspended in 1/20 volume 0.05% acetic acid. For the mutants that were produced in lower amounts, larger volumes were induced and the peptides were purified by cationic exchange chromatography as described before and separated by reverse phase chromatography using a Jupiter 4 μm Proteo 90 Å 250 × 4.6 mm C12 analytical column (Phenomenex). The column was equilibrated in 20% organic solvent (acetonitrile 0.1% TFA) before the sample injection. It was washed for 5 min before applying a linear gradient from 20 to 50% organic solvent in 20 min. 1 μl of each collected peak was used for mass-spectrometry determination.
Mass spectrometry analysis of the samples was performed by matrix-assisted laser desorption/ionization (MALDI) time-of-flight (ToF) in an ABI Voyager DE Pro (Applied Biosystems) operating in linear mode as previously described using external calibration (van Heel et al., [2013]). Briefly, 1 μl sample was spotted, dried and washed with 5 μL Milli-Q water, on the target. Next, 1 μl of α-cyano-4-hydroxycinnamic acid 5 mg/ml (Sigma-Aldrich) was spotted on the sample.
We designed a set of nisin mutants to investigate the specificity of NisP (Figure 4). For all these mutants, supernatants were collected after induction and divided into three fractions. NisP was added to two of these fractions, one maintaining the pH of the culture (4.5–5.0) and the other fraction was adjusted to pH 6.0. The third fraction was used as an untreated control. After cleavage, the masses of the peptides were monitored by MALDI-TOF (Table 2).

The next data set deals with Micrococcus flavus. The data set is described as follows: Activation of prenisin with supernatants containing NisP variants, antimicrobial assay. The following applies: supernatants after 3 h induction; in the first test 5 μl with 50 μl prenisin. It counts as cell-based. On the procedure:
(§1) Activity tests were performed by well-diffusion assay as indicated by van Heel et al. ([2013]). L. lactis NZ9000 transformed with the appropriate plasmids or Micrococcus flavus were used as sensor strains as specified in each figure. The cleavage of nisin by NisP after SDS-PAGE was monitored washing the gel according to Bhunia et al. ([1987]) and covering with an overlay of GM17 soft agar inoculated with NZ9000 (pIL3BTC pNZnisA-E3) induced with 1 ng/ml nisin. The overlay was incubated for 16 h, after which the presence of inhibition zones was evaluated.
The supernatants of the strains NZ9000 (pNZnisPsl-8H) and NZ9000 (pNZnisPsl-8K) were tested for the presence of protease activity after 3 h of induction with nisin. In each case, 5 μl of the supernatant was mixed with 50 μl of prenisin obtained by TCA precipitation of induced NZ9000 (pIL3BTC pNZnisA-E3). […]
In a second approach, we attempted to reduce the size of NisP, while keeping the active subtilisin-like domain intact. […] Additionally, the size of the inhibition halo measured is larger in the samples activated with the soluble protease present in the supernatants of these three engineered strains compared to the samples activated with the supernatant of L. lactis NZ9000 (pNGnisTP), which produces as a major product wild-type cell-anchored NisP.

Data set [1] deals with L. lactis NZ9000 (pIL253 pNZ8048). The data set is described as follows: Activity of the proteases in crude supernatants, antimicrobial assay against L. lactis. The settings on record: 1 μl protease with 50 μl supernatant containing its corresponding prenisin variant. Type of data set: cell-based, Lactococcus lactis. On the procedure:
as §1
To further compare the versatility of NisP in culture conditions with various proteases frequently used in biotechnology, we mutated the last four amino acids in the leader peptide (P4-P1) of nisin (i.e., ASPR) to insert a factor Xa (IEGR) or a thrombin (AVPR) cleavage site. We also mutated the arginine in position P1 of the leader peptide into glutamic acid, creating a cleavage site for the endoprotease Glu-C. Additionally, the proposed self-cleavage sequence of NisP (VSLR) (Figure 1, van der Meer et al., [1993]) was used to replace the ASPR sequence at the end of the nisin leader peptide. […] The cleavage was evaluated by activity against NZ9000 (pIL253 pNZ8048), which is resistant to the erythromycin and chloramphenicol present in the supernatants of the substrate producer strains but sensitive to nisin. […]

The test system of data set [2] is L. lactis NZ9000 (pNZnisP-8H). Put plainly: Antimicrobial activity of purified prelantibiotics against NisP producing sensor strain. The settings on record: compared to the plasmid free strain, data not shown. It counts as cell-based, Lactococcus lactis. As to the method:
as §1
The substrate tolerance of soluble NisP was tested using a set of different lantibiotics. These were produced using the nisin modification machinery encoded in NZ9000 (pIL3BTC pNZE3-mutant) and purified by cationic exchange chromatography. For this purpose, NZ9000 (pNZ-nisP-8H) was used as a sensor strain and tested using gallidermin (van Heel et al., [2013]) and two lantibiotics detected in the genome of Streptococcus pneumoniae, PneA1 and PneA2 encoded in the genes spr1765 and spr1766, respectively, which were heterologously expressed in L. lactis fused to the nisin leader peptide (Majchrzykiewicz et al., [2010]) (Figure 5). […] The activity was restored when a strain producing soluble NisP was employed.
Figure 5 Antimicrobial activity of purified modified lantibiotics gallidermin, 1215 and 1268 against L. lactis NZ9000 (pNZnisP-8H). […]

“Also recorded” adds a separate entry of the source. Ends that are not written are not given here.

Turning to “nisin I1D: Nisin I1D mutant (MSTKDFNLDLVSVSKKDSGASPRDTSISLCTPGCKTGALMGCNMKTATCHCSIHVSK; ends and bridges not checked; cysteine pairing not given here; UniProt P13068 1-57, looked up, variant I1D)”, in the data set on NisP (ratio 1000:1, culture pH (4.5–5.0) or pH 6.0, MALDI-TOF), the “Cleavage by NisP” value was “a small fraction of uncleaved peptide after the incubation of the mutant nisin I1D with the protease, which indicates reduced cleavage efficiency”.

Take trypsin: the “Protease activity (antimicrobial activity after activation of prenisin)” value in the data set on Micrococcus flavus is on record as “antimicrobial activity only in the positive controls”. Besides, the “Activity of the protease in culture conditions (release of active nisin)” value in data set [1] was “able to cleave in culture conditions”.

Turning to “nisin-ringA-less: Nisin (T2V S3A S5A C7A) mutant (MSTKDFNLDLVSVSKKDSGASPRIVAIALATPGCKTGALMGCNMKTATCHCSIHVSK; not fully specified; cysteine pairing not given here; UniProt P13068 1-57, looked up, variant T2V S3A S5A C7A)”, in the data set on NisP, the “Aberrant cleavage / misprocessing by NisP” value is “small peaks corresponding to peptides cleaved at abnormal P1 or P2 positions in the leader peptide; also recorded: a small fraction of nisin lacking the first amino acid(s)”.

With “nisin I1K: Nisin I1K mutant (MSTKDFNLDLVSVSKKDSGASPRKTSISLCTPGCKTGALMGCNMKTATCHCSIHVSK; ends and bridges not checked; cysteine pairing not given here; UniProt P13068 1-57, looked up, variant I1K)”, the “Aberrant cleavage / misprocessing by NisP” value with NisP is “a small fraction of mature nisin with a mass difference consistent with the presence of Arg P1 in the mature peptide”; with NisP (listed as I1K) it was “a small additional peak detected by mass-spectrometry consistent with a cleavage between positions P2 and P1”.

Turning to thrombin, the “Activity of the protease in culture conditions (release of active nisin)” value in data set [1] was “active; also recorded: able to cleave in culture conditions”.

Take “nisin: mature model lantibiotic (ITSISLCTPGCKTGALMGCNMKTATCHCSIHVSK; Lantibiotic nisin-A; UniProt P13068 24-57, looked up)”: in data set [2], the “Sensitivity of the NisP producing strain to nisin” value is “increased sensitivity”.

As to “nisin-C7A: Nisin C7A mutant, lacking the first ring (MSTKDFNLDLVSVSKKDSGASPRITSISLATPGCKTGALMGCNMKTATCHCSIHVSK; not fully specified; cysteine pairing not given here; UniProt P13068 1-57, looked up, variant C7A)”, the “Aberrant cleavage / misprocessing by NisP” value in the data set with NisP is on record as “small peaks corresponding to peptides cleaved at abnormal P1 or P2 positions in the leader peptide; also recorded: a small fraction of nisin lacking the first amino acid(s)”.

B1: NZ9000 (pNGnisTP): strain producing as a major product wild-type cell-anchored NisP (protein, UniProt Q07596 1-682, looked up)
chain: MKKILGFLFIVCSLGLSATVHGETTNSQQLLSNNINTELINHNSNAILSSTEGSTTDSINLGAQSPAVKSTTRTELDVTGAAKTLLQTSAVQKEMKVSLQETQVSSEFSKRDSVTNKEAVPVSKDELLEQSEVVVSTSSIQKNKILDNKKKRANFVTSSPLIKEKPSNSKDASGVIDNSASPLSYRKAKEVVSLRQPLKNQKVEAQPLLISNSSEKKASVYTNSHDFWDYQWDMKYVTNNGESYALYQPSKKISVGIIDSGIMEEHPDLSNSLGNYFKNLVPKGGFDNEEPDETGNPSDIVDKMGHGTEVAGQITANGNILGVAPGITVNIYRVFGENLSKSEWVARAIRRAADDGNKVINISAGQYLMISGSYDDGTNDYQEYLNYKSAINYATAKGSIVVAALGNDSLNIQDNQTMINFLKRFRSIKVPGKVVDAPSVFEDVIAVGGIDGYGNISDFSNIGADAIYAPAGTTANFKKYGQDKFVSQGYYLKDWLFTTANTGWYQYVYGNSFATPKVSGALALVVDKYGIKNPNQLKRFLLMNSPEVNGNRVLNIVDLLNGKNKAFSLDTDKGQDDAINHKSMENLKESRDTMKQEQDKEIQRNTNNNFSIKNDFHNISKEVISVDYNINQKMANNRNSRGAVSVRSQEILPVTGDGEDFLPALGIVCISILGILKRKTKN
modifications: full-length
notes: strain producing as a major product wild-type cell-anchored NisP
In the case of B1, the “Protease activity (antimicrobial activity after activation of prenisin)” value in the data set with Micrococcus flavus was “antimicrobial activity only in the positive controls”.

The values are drawn from publication PMC5812297, “Specificity and Application of the Lantibiotic Protease NisP” (Frontiers in Microbiology, 2018).
